From ChEMBL document CHEMBL1201862, “PubChem BioAssay data set” (2004)
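Exposure lasted 48 hours, with cells grown in 96-well plates and compounds tested at five concentrations. GI50: concentration for 50% inhibition of growth.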 Active and inactive are the calls of the source. No stated cut-off is given here; in the data, active = GI50 up to about 1.1 µM and inactive = higher.

What was measured:
Assay in all cases: inhibition of tumour cell growth, NCI panel, 48 h
A549 = system: A549
ACHN = system: ACHN
HCC 2998 = system: HCC 2998
K562 = system: K562
KM12 = system: KM12
LOX IMVI = system: LOX IMVI
NCI-H460 = system: NCI-H460
NCI-H522 = system: NCI-H522
OVCAR-3 = system: OVCAR-3
OVCAR-8 = system: OVCAR-8
RXF 393 = system: RXF 393
SF-268 = system: SF-268
SF-295 = system: SF-295
SK-OV-3 = system: SK-OV-3
SNB-19 = system: SNB-19
SNB-75 = system: SNB-75
SR = system: SR
SW-620 = system: SW-620
UO-31 = system: UO-31
NCI/ADR-RES = system: NCI/ADR-RES

Measured: GI50

N=c1nc(N)c2cc3c(N)nc(=N)c3cc12
inactive: A549 > 100 µM | ACHN 63.5 µM | HCC 2998 31.3 µM | K562 2.2 µM | KM12 72.9 µM | LOX IMVI 2.49 µM | NCI-H460 22.5 µM | NCI-H522 16 µM | OVCAR-3 27.9 µM | OVCAR-8 4.35 µM | RXF 393 6.32 µM | SF-268 2.62 µM | SF-295 14.9 µM | SK-OV-3 28.6 µM | SNB-19 58.6 µM | SNB-75 8.09 µM | SR 3.83 µM | SW-620 5.27 µM | UO-31 7.5 µM

O=C(/C=C/c1ccccc1O)c1cccc2ccccc12
inactive: A549 > 80.2 µM | ACHN > 100 µM | HCC 2998 > 74.1 µM | K562 32 µM | KM12 40.3 µM | LOX IMVI > 53.5 µM | NCI-H460 > 84.1 µM | NCI-H522 51.9 µM | OVCAR-3 30.2 µM | OVCAR-8 > 71 µM | RXF 393 43.2 µM | SF-268 48.8 µM | SF-295 > 100 µM | SK-OV-3 > 100 µM | SNB-19 69.2 µM | SNB-75 48.8 µM | SR 31.3 µM | SW-620 > 28.1 µM | UO-31 > 47.4 µM

CN(C)c1ccc(/N=N/c2ccncc2)cc1
inactive: A549 > 100 µM | ACHN > 100 µM | HCC 2998 22.6 µM | K562 43.5 µM | KM12 > 100 µM | LOX IMVI 93.1 µM | NCI-H460 > 100 µM | NCI/ADR-RES 31.2 µM | OVCAR-3 > 100 µM | OVCAR-8 > 100 µM | RXF 393 > 100 µM | SF-268 85.7 µM | SF-295 > 100 µM | SK-OV-3 40 µM | SNB-19 > 100 µM | SW-620 > 100 µM | UO-31 > 100 µM

O=C(O)c1ccc(C2COc3ccc(Cl)cc3C2)cc1 (stereo not given)
inactive: A549 > 100 µM | ACHN > 100 µM | HCC 2998 > 100 µM | K562 > 100 µM | KM12 > 100 µM | LOX IMVI > 100 µM | NCI-H460 > 100 µM | NCI-H522 > 100 µM | OVCAR-3 > 100 µM | OVCAR-8 > 100 µM | RXF 393 > 100 µM | SF-268 > 100 µM | SF-295 > 100 µM | SK-OV-3 > 100 µM | SNB-19 > 100 µM | SNB-75 31.6 µM | SR > 100 µM | SW-620 > 100 µM | UO-31 > 100 µM

CCC(=O)N1C(=S)SC[C@H]1C(=O)OC
inactive: A549 > 100 µM | ACHN > 100 µM | HCC 2998 > 100 µM | K562 > 100 µM | KM12 > 100 µM | LOX IMVI > 100 µM | NCI-H522 > 100 µM | OVCAR-3 > 100 µM | OVCAR-8 > 100 µM | RXF 393 > 100 µM | SF-268 > 100 µM | SF-295 > 100 µM | SK-OV-3 > 100 µM | SNB-19 > 100 µM | SNB-75 > 100 µM | SR > 100 µM | SW-620 > 100 µM | UO-31 > 100 µM

C=C1C(=O)O[C@@H]2[C@H]1CCC(C)=C1C=CC(=O)[C@]12C
inactive: A549 23.6 µM | ACHN 16.1 µM | HCC 2998 13.2 µM | K562 4.49 µM | KM12 12.4 µM | NCI-H460 19.4 µM | NCI-H522 2.42 µM | OVCAR-3 16.7 µM | OVCAR-8 17.3 µM | RXF 393 14.4 µM | SF-268 23.9 µM | SF-295 17 µM | SK-OV-3 27.2 µM | SNB-19 23.7 µM | SNB-75 18.9 µM | SR 13.6 µM | SW-620 6.21 µM | UO-31 14.9 µM

CCOP1(=O)C=C(C)C(Cl)=C(C)C1 (stereo not given)
inactive: A549 21.1 µM | ACHN 24.6 µM | HCC 2998 80.2 µM | K562 23.4 µM | KM12 15.8 µM | LOX IMVI 20.4 µM | NCI-H460 39.2 µM | NCI-H522 13.9 µM | OVCAR-3 37.3 µM | OVCAR-8 30 µM | RXF 393 29.7 µM | SF-268 38.9 µM | SF-295 47.1 µM | SK-OV-3 60.3 µM | SNB-19 > 100 µM | SNB-75 15.4 µM | SR 27.2 µM | SW-620 21.1 µM | UO-31 35.3 µM

CC1=C(C(=O)Nc2ccccc2C)C(c2ccc(C3C(C(=O)Nc4ccccc4C)=CNC=C3C(=O)Nc3ccccc3C)cc2)C(C(=O)Nc2ccccc2C)=C(C)N1
inactive: A549 40.6 µM | ACHN 16.4 µM | HCC 2998 17.8 µM | K562 9.27 µM | KM12 14.1 µM | LOX IMVI 7.08 µM | NCI-H460 21.4 µM | NCI-H522 6.68 µM | OVCAR-3 20.3 µM | OVCAR-8 25.6 µM | RXF 393 47.2 µM | SF-268 11.4 µM | SF-295 19.3 µM | SK-OV-3 27.3 µM | SNB-19 19.8 µM | SNB-75 19.5 µM | SR 3.22 µM | SW-620 14.6 µM | UO-31 18.7 µM

N#CC(C#N)=Cc1ccc(C=C2SC3=C(SCCS3)S2)s1
inactive: A549 55.5 µM | ACHN > 100 µM | HCC 2998 15.8 µM | KM12 2.25 µM | NCI-H460 7.59 µM | NCI-H522 2.99 µM | NCI/ADR-RES 1.63 µM | OVCAR-3 2.5 µM | OVCAR-8 29.9 µM | SF-268 40.4 µM | SF-295 24.4 µM | SK-OV-3 74.8 µM | SNB-19 44.1 µM | SNB-75 16.7 µM | SW-620 4.38 µM | UO-31 > 100 µM

Cc1ccccc1NC(=O)C1C(=O)N(c2ccccc2C)C(=O)/C1=N\N (stereo not given)
inactive: A549 > 100 µM | ACHN > 100 µM | HCC 2998 > 100 µM | K562 > 100 µM | KM12 > 100 µM | LOX IMVI > 100 µM | NCI-H460 > 100 µM | NCI-H522 > 100 µM | OVCAR-3 > 100 µM | OVCAR-8 > 100 µM | RXF 393 > 100 µM | SF-268 > 100 µM | SF-295 > 100 µM | SK-OV-3 > 100 µM | SNB-19 > 100 µM | SNB-75 > 100 µM | SR > 100 µM | SW-620 > 100 µM | UO-31 > 100 µM

CN1CCC(=O)/C(=C/c2ccccc2)C1
inactive: A549 17.7 µM | ACHN 17.9 µM | HCC 2998 10.9 µM | K562 5.24 µM | KM12 2.23 µM | LOX IMVI 5.58 µM | NCI-H460 16.3 µM | NCI-H522 8.95 µM | OVCAR-3 11.6 µM | OVCAR-8 22 µM | RXF 393 13.7 µM | SF-268 17.5 µM | SF-295 15.4 µM | SK-OV-3 20.2 µM | SNB-19 17.1 µM | SNB-75 6.85 µM | SR 2.91 µM | SW-620 4.99 µM | UO-31 17.9 µM

CN(C)CCNC(=O)c1cccc2ncc(-c3ccccc3)nc12
inactive: A549 6.9 µM | ACHN 5.35 µM | HCC 2998 9.59 µM | K562 9.02 µM | KM12 11.8 µM | LOX IMVI 7.66 µM | NCI-H460 4.41 µM | NCI-H522 5.78 µM | OVCAR-3 19.5 µM | OVCAR-8 7.52 µM | RXF 393 5.86 µM | SF-268 10.6 µM | SF-295 14.2 µM | SK-OV-3 16.4 µM | SNB-19 17.1 µM | SNB-75 17.5 µM | SR 1.9 µM | SW-620 5.31 µM | UO-31 8.89 µM

COC(=O)c1cc2c(nc1C)-c1ccccc1OS2(=O)=O
inactive: A549 > 100 µM | ACHN > 100 µM | HCC 2998 > 100 µM | K562 > 100 µM | KM12 > 100 µM | LOX IMVI > 100 µM | NCI-H460 > 100 µM | NCI-H522 > 100 µM | OVCAR-3 > 100 µM | OVCAR-8 79.8 µM | RXF 393 32.6 µM | SF-268 45.5 µM | SF-295 43.1 µM | SK-OV-3 > 100 µM | SNB-19 81.3 µM | SNB-75 17.9 µM | SR > 100 µM | SW-620 > 100 µM | UO-31 > 100 µM

CC1(C)CN(c2ccccc2)C(=O)C1OC(=O)[C@@]1(C)C[C@@H]2C=C[C@H]1C2 (stereo not given in full)
inactive: A549 29.6 µM | ACHN 34.5 µM | K562 6.15 µM | KM12 21.7 µM | LOX IMVI 18.9 µM | NCI-H460 23 µM | NCI/ADR-RES 23 µM | OVCAR-3 39.4 µM | OVCAR-8 32.2 µM | RXF 393 17.9 µM | SF-268 27.5 µM | SF-295 24.5 µM | SK-OV-3 35.1 µM | SNB-19 28.8 µM | SNB-75 34.3 µM | SW-620 33.3 µM | UO-31 13.7 µM

COc1cccc(CN(C(=O)/C=C\Sc2ccccc2)C(C)(C)C)c1
inactive: A549 43.8 µM | ACHN > 100 µM | HCC 2998 > 100 µM | KM12 > 100 µM | LOX IMVI 32.5 µM | NCI/ADR-RES 58.9 µM | OVCAR-3 52.5 µM | OVCAR-8 > 100 µM | SF-295 > 100 µM | SK-OV-3 > 100 µM | SNB-19 > 100 µM | SW-620 > 100 µM | UO-31 48.3 µM
